Data taken from patent US6787566B2, “Breakers of advanced glycation endproducts” (City of Hope, priority 1999, dated 2004).

Experiments:
[1] = biological target: T1, cross-linked collagen-AGE-BSA (Rattus norvegicus, UniProt P02454+P02466); test: AGE-BSA-collagen ELISA: cleavage of glycated BSA cross-linked to collagen; assay type: biochemical; conditions: for AGE-breaking activity (cleavage of cross-linked collagen-AGE-BSA), in words: 0.1-10 mM final concentration, FIGS. 1A and 1C; for Concentration dependence of AGE-BSA-collagen crosslink breaking, in words: FIGS. 1A-C
T1 construct: purchased Biocoat (Collaborative Research, Bedford, Mass.) for the collagen-coated plates; Sigma Chemical co. for bovine serum albumin
T1 sequence (P02454 152-1207 limits assumed): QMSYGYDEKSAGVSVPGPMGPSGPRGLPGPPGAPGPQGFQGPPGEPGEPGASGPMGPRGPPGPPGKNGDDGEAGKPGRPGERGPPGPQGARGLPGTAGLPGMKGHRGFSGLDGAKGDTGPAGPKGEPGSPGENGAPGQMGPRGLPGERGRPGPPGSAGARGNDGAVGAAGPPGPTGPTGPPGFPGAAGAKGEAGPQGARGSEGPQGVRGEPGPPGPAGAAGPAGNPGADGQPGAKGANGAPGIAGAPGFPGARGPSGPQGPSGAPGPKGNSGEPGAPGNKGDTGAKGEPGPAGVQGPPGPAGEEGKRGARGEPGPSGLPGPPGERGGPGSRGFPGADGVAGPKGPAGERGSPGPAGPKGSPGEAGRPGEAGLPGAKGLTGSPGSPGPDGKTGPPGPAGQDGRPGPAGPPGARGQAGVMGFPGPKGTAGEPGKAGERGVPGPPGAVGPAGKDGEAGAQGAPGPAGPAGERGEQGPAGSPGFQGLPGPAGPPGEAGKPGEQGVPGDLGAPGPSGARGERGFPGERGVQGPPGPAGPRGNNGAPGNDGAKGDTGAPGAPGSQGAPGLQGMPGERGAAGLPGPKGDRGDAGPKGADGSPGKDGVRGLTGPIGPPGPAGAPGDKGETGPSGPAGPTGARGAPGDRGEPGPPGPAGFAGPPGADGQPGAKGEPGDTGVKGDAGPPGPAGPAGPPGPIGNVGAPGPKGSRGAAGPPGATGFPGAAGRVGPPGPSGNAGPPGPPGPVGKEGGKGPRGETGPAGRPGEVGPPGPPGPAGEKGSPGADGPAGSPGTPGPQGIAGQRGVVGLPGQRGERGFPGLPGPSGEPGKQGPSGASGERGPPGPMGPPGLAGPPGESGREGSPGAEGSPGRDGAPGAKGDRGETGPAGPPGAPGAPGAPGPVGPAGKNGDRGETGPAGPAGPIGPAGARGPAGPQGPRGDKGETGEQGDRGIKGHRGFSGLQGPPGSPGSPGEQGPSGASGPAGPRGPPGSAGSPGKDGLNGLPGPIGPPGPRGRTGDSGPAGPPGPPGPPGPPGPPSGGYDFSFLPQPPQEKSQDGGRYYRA
T1 sequence (P02466 86-1125 limits assumed): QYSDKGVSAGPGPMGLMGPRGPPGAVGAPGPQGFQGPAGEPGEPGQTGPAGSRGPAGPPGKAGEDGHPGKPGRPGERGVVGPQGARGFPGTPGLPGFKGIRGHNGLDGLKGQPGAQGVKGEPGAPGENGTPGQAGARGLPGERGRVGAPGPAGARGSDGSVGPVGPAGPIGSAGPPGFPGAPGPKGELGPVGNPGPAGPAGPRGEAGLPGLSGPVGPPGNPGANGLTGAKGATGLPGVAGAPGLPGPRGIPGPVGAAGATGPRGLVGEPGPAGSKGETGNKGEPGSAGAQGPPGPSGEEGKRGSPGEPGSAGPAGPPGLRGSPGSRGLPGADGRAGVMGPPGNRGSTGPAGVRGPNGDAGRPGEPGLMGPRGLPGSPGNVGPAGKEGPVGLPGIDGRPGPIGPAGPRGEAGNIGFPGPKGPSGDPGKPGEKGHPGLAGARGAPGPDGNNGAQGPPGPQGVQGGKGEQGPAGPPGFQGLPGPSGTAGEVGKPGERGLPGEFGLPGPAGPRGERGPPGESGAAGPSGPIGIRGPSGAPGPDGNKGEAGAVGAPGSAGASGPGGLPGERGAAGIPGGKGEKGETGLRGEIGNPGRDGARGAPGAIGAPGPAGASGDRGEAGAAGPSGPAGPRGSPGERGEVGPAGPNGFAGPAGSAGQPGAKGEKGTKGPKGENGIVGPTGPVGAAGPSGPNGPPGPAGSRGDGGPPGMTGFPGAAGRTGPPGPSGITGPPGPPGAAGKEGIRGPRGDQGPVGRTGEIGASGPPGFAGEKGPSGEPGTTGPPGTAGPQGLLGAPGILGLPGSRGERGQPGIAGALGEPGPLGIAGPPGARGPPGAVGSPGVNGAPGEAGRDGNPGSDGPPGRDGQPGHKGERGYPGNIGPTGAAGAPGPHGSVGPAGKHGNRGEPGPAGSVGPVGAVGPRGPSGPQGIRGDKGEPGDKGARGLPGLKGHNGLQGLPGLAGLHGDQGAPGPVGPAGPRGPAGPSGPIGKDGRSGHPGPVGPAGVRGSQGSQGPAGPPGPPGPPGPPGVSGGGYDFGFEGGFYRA
Procedure: In vitro evaluation of the ability of the AGE-breaker compounds to cleave and break cross-linking of glycated BSA (AGE-BSA) (prepared as described (Rahbar et al., 1999)) to the rat-tail-tendon-collagen was by a special ELISA (Vasan et al., 1996). The rat-tail-tendon-collagen coated plates were first blocked first with 300 μL of Superblock blocking buffer (Pierce Chemicals, Rockford, Ill.) for one hour. The blocking solution was removed from the wells by washing the plates twice with PBS-0.05% Tween 20 (PBS-T) using a Dynatech ELISA-plate washer. Cross-linking of various concentrations of AGE-BSA (0, 0.01, 0.05, 0.1, 0.25, 0.50, and 1.0 μg per well) to rat-tail-collagen coated plates was performed without the testing compound, and the plates were incubated for 5 hours at 37° C. After washing the wells three times with PBS-T to remove the unattached AGE-BSA, test concentrations of the compound (50 μL/well) dissolved in PBS were added to wells in triplicate and incubation continued at 37° C. overnight. After washing with PBS-T, the amount of BSA remaining attached to the tail collagen plate was then quantified by addition of rabbit anti-BSA polyclonal antibodies (50 μL/well) for 1 hour at 37° C. The wells were then washed three times with PBS-T and developed with the chromogenic substrate ABTS (100 μL/well). Absorbance was measured at 410 nm in microplate reader (BioRad, Hercules, Calif.).
The percentage breaking activity is calculated by the following formula: 100×[(A410, PBS control)−(A410, AGE-breaker compound)]/[A410, PBS control].

[2] = test system: IgG-AGE cross-linked to the rat RBC surface; test: Cleavage of IgG-AGE cross-linked to RBC surface, anti-IgG ELISA; assay type: cell-based; conditions: RBCs of diabetic rats vs diabetic and non-diabetic controls; FIG. 6
Procedure: IgG cross-linked to the RBC surface was determined with an anti-IgG by a modification of the method described by Vasan et al. (1996). Briefly, heparinized blood was drawn from the tail vein in capillary tubes, inverted several times, then centrifuged at 200×g for five minutes at room temperature. RBCs were washed three times with PBS in 0.5 mL microfuge tubes and packed with a final centrifugation at 500×g. Red cells were diluted at 1:10 to 1:100 in Dulbecco's Modified Eagle's Medium that is normal for glucose. Experimental compounds were added at desired concentrations and incubated at 37° C. in a CO2 incubator for 24 hours in sterile conditions. Control incubations contained RBCs and PBS alone. After incubation, RBCs were washed three times in PBS and packed cells diluted 1:200 to 1:500. The RBC suspensions were gently vortexed and 50 μL aliquots added to 450 μL of a polyclonal rabbit anti-rat IgG conjugated to alkaline phosphatase (diluted 1:2500 in PBS). […] The RBCs were pelleted and the supernatant was read at […] in either a conventional spectrometer or an ELISA reader. Blank readings were obtained by incubating tubes without cells.

[3] = biological target: T2, native and glycated β-amyloid (1-40) peptide fibrils (Homo sapiens, UniProt P05067); test: Thioflavine T fluorescence assay of β-amyloid fibril disaggregation; assay type: biochemical; conditions: ThT assay
T2 construct: β-amyloid (1-40) peptide was from Bachem (Torrance, Calif.); purchased Bachem (Torrance, Calif.)
T2 sequence (P05067 672-711): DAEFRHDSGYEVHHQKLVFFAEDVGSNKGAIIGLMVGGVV
Procedure: Both dyes have been adapted to in vitro measurements of amyloid fibril formation and quantification. ThT binding to β-amyloids gives rise to a large fluorescence excitation spectral shift that allows selective excitation of the amyloid fibril bound ThT (Tjernberg et al., 1999). In the present study, we have investigated the disaggregation of both native (unmodified) and glycated β-amyloid (1-40) peptide by the AGE-breaker compounds introduced here. Stock solutions of peptide were dissolved in deionized water at a concentration of 1 mg/mL. For AGE crosslinking experiments, they were incubated in 4 mL polypropylene tubes at a concentration of 250 μg/mL (60 μM) and 50 mM glucose in 50 mM sodium phosphate buffer, pH 7.9, at 50° C. in the dark for 5 days. Sodium azide (0.01% w/v) was added to prevent microbiological growth. In long-term experiments, water was added every 12 hours to compensate for solvent evaporation. AGE-β-amyloid was then dialyzed against double-distilled water using Spectra/Por CE dialysis membrane (molecular mass cut off: 1000 Da), and then freeze dried. Two sets of experiments were prepared for each compound. Solutions for the first experiment contained 100 μM of β-amyloid in 50 mM Tris-buffered saline (TBS) pH 7.4, and […] (the drugs were dissolved in DMSO and the solutions were prepared for dilution from this DMSO stock). The second set contained 100 μM of β-amyloid in TBS and 100 μM of one compound. The reactions were incubated at 37° C. for 24 hours without stirring (stagnant assay). Control experiments were prepared accordingly except that no AGE-breaker compounds were added to the tubes. The same protocol was used for both native and glycated β-amyloid peptides. The incubated samples are vortexed and 40 μL aliquots are withdrawn and mixed with 960 μL of 10 μM ThT in 10 mM sodium phosphate-buffer. Fluorescence measurements were taken with excitation of 437 nm and emission at 485 nm. Slit widths are set to 5 nm.

[4] = test system: crosslinks formed in skin and tail collagen of diabetic rats; conditions: cited from earlier work
β-amyloid fibrils = biological target: T3, β-amyloid fibrils (Homo sapiens, UniProt P05067); conditions: 20 mM; cited from earlier work
T3 construct: β-AP (amino acids 1-40, from Bachem, Torrance, Calif.)
T3 sequence (P05067 672-711): as above

Molecule	AGE-breaking activity (cleavage of cross-linked collagen-AGE-BSA), in words [1]	Concentration dependence of AGE-BSA-collagen crosslink breaking, in words [1]	Overall AGE-breaking property, in words ([1]; overall judgement of the patent's tests)	IgG-AGE bound to RBC surface, in words [2]	Disaggregation of fibrillar forms of native and glycated β-amyloid, in words [3]	Cleaving crosslinks formed in skin and tail collagen, in words [4]	Disaggregation of β-amyloid fibrils, in words (β-amyloid fibrils)
1,4-benzene-bis[4-methyleneaminophenoxyisobutyric acid] [LR102]	very effective AGE-breakers	more potent at lower concentrations	most effective AGE-breakers	almost the same IgG-AGE content as that of non-diabetic control	clearly confirmed the efficacy		
Cc1sc[n+](CC(=O)c2ccccc2)c1C.[Cl-] [ALT711]						not effective	
O=C(C[n+]1ccsc1)c1ccccc1.[Br-] [PTB, N-phenacylthiazolium bromide]							disaggregates β-amyloid fibrils
methylene bis [LR90, methylene bis [4,4′-(2-chlorophenylureidophenoxyisobutyric acid)]]	very effective AGE-breakers	more effective breakers at higher concentrations			clearly confirmed the efficacy		
